The term EC50 denotes the midpoint of the concentration-response curve. High values mean a less potent agent, low ones a more potent agent.

Each structure is given as a SMILES string. Read-outs that look alike come from different tables or passages of the source. Where only a bound is given, the exact number is not on record here.

The test system of assay [1] is Wnt activity (Sp5-Luc reporter in SW480 colon carcinoma cells). The assay is described as follows: Wnt activity screening assay (Sp5-Luc reporter gene assay). The format is cell-based, human. Put shortly:
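Compounds at 10 points (1:3 steps, top 10 μM, 0.1% DMSO final) were incubated 36 to 48 h at 37° C with stable Sp5-Luc SW480 reporter cells in 1% FBS medium. Luciferase luminescence was then read and expressed relative to DMSO-only cells. Four-parameter variable-slope fitting yielded EC50 values.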
For orientation: In a reporter assay the amount or activity of a reporter protein is the signal.

Assay [2] deals with GSK3β kinase (Homo sapiens (Human), UniProt P49841). Nature of the assay: GSK3β kinase assay (Ser/Thr 09 peptide Z-lyte, FRET).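 Note: Coumarin/fluorescein emission ratio converted to percent phosphorylation against unphosphorylated (0%) and phosphorylated (100%) controls, 1 h compound incubation at room temperature, 11-point threefold dilutions from 10 µM, run in duplicate.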 The format is biochemical. Conditions: method text calls the value IC50.
Assay [3] concerns SW480 colon carcinoma cells. The assay is described as follows: Cell viability assay (CellTiter-Glo) in SW480 cells.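 Note: SW480 cells stably carrying an Sp5-luciferase TCF/LEF reporter, luminescent ATP signal as viability measure, DMSO-treated cells as control.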 The format is cell-based, human.
The test system of assay [4] is IL-6. Nature of the assay: IL-6 inhibition in LPS-stimulated human peripheral blood mononuclear cells (HTRF). The format is cell-based. Conditions: Homo sapiens, PBMC; for EC50: IL-6, LPS-stimulated huPBMCs, HTRF; for inhibition at 10 µM: read-out: percent value in parentheses below EC50 >10. In short, it runs like this:
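EC50 from a 4-parameter fit of DMSO-normalized HTRF (665/620 nm) IL-6 signal, duplicates. Compound was added to fresh human PBMCs in 1% FBS RPMI for 2 h (top 10 μM, 3-fold, 0.25% DMSO) before 22 h stimulation with LPS at 50 ng/mL, 37 °C.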
(In general: Time-resolved FRET reads energy transfer from a long-lived donor to a nearby acceptor.)

The target in assay [5] is DYRK1A kinase (Homo sapiens (Human), UniProt Q13627). The assay is described as follows: DYRK1A kinase assay (Ser/Thr 18 peptide Z-lyte, FRET). Conditions: DYRK1A kinase; method text calls the value IC50.
Setting [6] is: Homo sapiens; Sp5-Luc reporter, SW480 cells, 36 to 48 hours.
Setting [7] is: Homo sapiens, 96 h; cell viability, SW480 cells, four days, CellTiter-Glo.
[8] abbreviates: Homo sapiens, SW480, read-out: percent inhibition at 10 μM.
Where [9] appears, read: Homo sapiens, SW480; read-out: percent inhibition at 10 μM.

GSK3β kinase, sequence (P49841 whole entry): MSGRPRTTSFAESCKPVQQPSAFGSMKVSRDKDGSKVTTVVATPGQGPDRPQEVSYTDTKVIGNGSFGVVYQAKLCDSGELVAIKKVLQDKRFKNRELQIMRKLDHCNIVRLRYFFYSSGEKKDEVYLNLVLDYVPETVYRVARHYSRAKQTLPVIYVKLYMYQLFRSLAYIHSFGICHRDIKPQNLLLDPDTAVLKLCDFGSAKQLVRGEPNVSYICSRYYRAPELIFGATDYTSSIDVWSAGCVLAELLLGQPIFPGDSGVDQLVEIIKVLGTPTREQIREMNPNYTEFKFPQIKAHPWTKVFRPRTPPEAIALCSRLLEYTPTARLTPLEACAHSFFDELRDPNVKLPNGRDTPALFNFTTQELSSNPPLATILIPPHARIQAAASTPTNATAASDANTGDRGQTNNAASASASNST

For the molecule `Cc1nnc(-c2ccc3cnc(NC(=O)[C@H]4CC[C@H](N(C)C)CC4)cc3c2)s1` [Compound 22, trans-4-(Dimethylamino)-N-(6-(5-methyl-1,3,4-thiadiazol-2-yl)isoquinolin-3-yl)cyclohexane-1-carboxamide], the EC50 came to 0.434 µM in assay [1] (setting [6]); 0.022 µM in assay [2]; 2.05 µM in assay [3] (setting [7]); 6.66 µM in assay [4]; 0.005 µM in assay [5].
With `Cc1cn2c(n1)CN(C(=O)Nc1cc3cc(-c4nnc(C)s4)ccc3cn1)CC2` [Compound 58, 2-Methyl-N-(6-(5-methyl-1,3,4-thiadiazol-2-yl)isoquinolin-3-yl)-5,6-dihydroimidazo[1,2-a]pyrazine-7(8H)-carboxamide], the EC50 in assay [1] (setting [6]) stood at 1.46 µM; in assay [2], 0.007 µM; in assay [3] (setting [7]) it was 0.547 µM; in assay [4], 9.57 µM; in assay [5] it was 0.006 µM.
As for `CN1CC2CCC(C1)N2C(=O)Nc1cc2cc(-c3cnn(C)c3)ccc2cn1` [Compound 61, 3-Methyl-N-(6-(1-methyl-1H-pyrazol-4-yl)isoquinolin-3-yl)-3,8-diazabicyclo[3.2.1]octane-8-carboxamide], the inhibition at 10 µM stood at 22.4% in assay [1] (setting [8]), 13.1% in assay [3] (setting [8]) and 5.2% in assay [4]. The EC50 in assay [1] (setting [6]) is more than 10 µM; in assay [2], 9.21 µM; in assay [3] (setting [7]), more than 10 µM; in assay [4], more than 10 µM; in assay [5] it was 0.007 µM.
Take `C[C@@H]1CN(C(=O)Nc2cc3cc(-c4cnn(C)c4)ccc3cn2)CCN1C` [Compound 67, (R)-3,4-Dimethyl-N-(6-(1-methyl-1H-pyrazol-4-yl)isoquinolin-3-yl) piperazine-1-carboxamide]: the results for the inhibition at 10 µM in assay [1] (setting [9]) and in assay [4] were 34.3% and 29.6%, respectively. For the same molecule, the EC50 is more than 10 µM in assay [1] (setting [6]); 1.87 µM in assay [2]; 3.99 µM in assay [3] (setting [7]); more than 10 µM in assay [4]; 0.007 µM in assay [5].
On to `COCCN[C@H]1CC[C@H](C(=O)Nc2cc3cc(-c4cnc(C)o4)ccc3cn2)CC1` [Compound 106, trans-4-((2-Methoxyethyl)amino)-N-(6-(2-methyloxazol-5-yl)isoquinolin-3-yl)cyclohexane-1-carboxamide], for which the EC50 in assay [1] (setting [6]) was found to be 3.43 µM; in assay [2], 0.32 µM; in assay [3] (setting [7]), 2.96 µM; in assay [4] it was 1.11 µM; in assay [5] it was 0.017 µM.
Turning to `Cc1nnc(-c2ccc3cnc(NC(=O)N4C5CCC4CN(C)C5)cc3c2)s1` [Compound 108, 3-Methyl-N-(6-(5-methyl-1,3,4-thiadiazol-2-yl)isoquinolin-3-yl)-3,8-diazabicyclo[3.2.1]octane-8-carboxamide], the inhibition at 10 µM came to 19.9% in assay [1] (setting [8]), 7.8% in assay [3] (setting [8]) and 4.1% in assay [4]. Besides, the EC50 in assay [1] (setting [6]) is more than 10 µM; in assay [2], 0.671 µM; in assay [3] (setting [7]) it was more than 10 µM; in assay [4], more than 10 µM; in assay [5], 0.01 µM.
Take `Cc1nnc(-c2ccc3cnc(NC(=O)N4[C@@H]5CC[C@H]4C[C@H](NCCC(F)(F)F)C5)cc3c2)s1` [Compound 153, (1R,5S)-N-(6-(5-Methyl-1,3,4-thiadiazol-2-yl)isoquinolin-3-yl)-3-exo-((3,3,3-trifluoropropyl)amino)-8-azabicyclo[3.2.1]octane-8-carboxamide]: the inhibition at 10 µM in assay [1] (setting [8]) amounted to 3.4%; in assay [3] (setting [8]), 0%; in assay [4], 9%. Also, the half-maximal effective concentration (EC50) was more than 10 µM in assay [1] (setting [6]); 0.532 µM in assay [2]; more than 10 µM in assay [3] (setting [7]); more than 10 µM in assay [4]; 0.028 µM in assay [5].
As to `Cc1ncc(-c2ccc3cnc(NC(=O)[C@H]4CC[C@H](NCCF)CC4)cc3c2)o1` [Compound 155, trans-4-((2-fluoroethyl)amino)-N-(6-(2-methyloxazol-5-yl)isoquinolin-3-yl) cyclohexane-1-carboxamide], the EC50 was 2.67 µM in assay [1] (setting [6]); 0.668 µM in assay [2]; 0.807 µM in assay [3] (setting [7]); 1.06 µM in assay [4]; 0.008 µM in assay [5].
Take `Cc1nnc(-c2ccc3cnc(NC(=O)N4[C@@H]5CC[C@H]4C[C@@H](NCCC(F)(F)F)C5)cc3c2)s1` [Compound 195, (1R,5S)-cis-N-(6-(5-methyl-1,3,4-thiadiazol-2-yl)isoquinolin-3-yl)-3-((3,3,3-trifluoropropyl)amino)-8-azabicyclo[3.2.1]octane-8-carboxamide]: the inhibition at 10 µM in assay [1] (setting [8]) is 13.8%; in assay [3] (setting [8]), 13%; in assay [4] it was 23.4%. Moreover, the EC50 is more than 10 µM in assay [1] (setting [6]); 1.25 µM in assay [2]; more than 10 µM in assay [3] (setting [7]); more than 10 µM in assay [4]; 0.005 µM in assay [5].
With `COCCN[C@H]1CC[C@H](C(=O)Nc2cc3cc(-c4cnn(C)c4)ccc3cn2)CC1` [Compound 196, trans-4-((2-Methoxyethyl)amino)-N-(6-(1-methyl-1H-pyrazol-4-yl)isoquinolin-3-yl)cyclohexane-1-carboxamide], the EC50 in assay [1] (setting [6]) came out at 3.98 µM; in assay [2] it was 0.194 µM; in assay [3] (setting [7]), 6.11 µM; in assay [4], 1.21 µM; in assay [5], 0.006 µM.
For `Cc1nnc(-c2cc(F)c3cnc(NC(=O)N(C)C4CCN(C)CC4)cc3c2)s1` [Compound 227, 3-(8-Fluoro-6-(5-methyl-1,3,4-thiadiazol-2-yl)isoquinolin-3-yl)-1-methyl-1-(1-methylpiperidin-4-yl)urea], the concentration for a half-maximal effect (EC50) in assay [1] (setting [6]) was 3.65 µM; in assay [2], 4.5 µM; in assay [3] (setting [7]), more than 10 µM; in assay [4], more than 10 µM; in assay [5], 0.024 µM. Moreover, the figures for the inhibition at 10 µM in assay [3] (setting [9]) and in assay [4] were 1.9% and 4.9%, respectively.
As to `CN1CCC(N(C)C(=O)Nc2cc3cc(-c4cn(C)nn4)cc(F)c3cn2)CC1` [Compound 228, 3-(8-Fluoro-6-(1-methyl-1H-1,2,3-triazol-4-yl)isoquinolin-3-yl)-1-methyl-1-(1-methylpiperidin-4-yl)urea], the inhibition at 10 µM in assay [1] (setting [9]) was 46.3%; in assay [4] it was 3.3%. In addition, the EC50 in assay [1] (setting [6]) was more than 10 µM; in assay [2] it was 0.255 µM; in assay [3] (setting [7]) it was more than 10 µM; in assay [4] it was more than 10 µM; in assay [5] it was 0.012 µM.
For `CN1CCC(N(C)C(=O)Nc2cc3cc(-c4cnn(C)c4)cc(F)c3cn2)CC1` [Compound 230, 3-(8-Fluoro-6-(1-methyl-1H-pyrazol-4-yl)isoquinolin-3-yl)-1-methyl-1-(1-methylpiperidin-4-yl)urea], the results for the inhibition at 10 µM in assay [1] (setting [9]), in assay [3] (setting [9]) and in assay [4] were 0%, 31.9% and 36.6%, respectively. Further, the EC50 in assay [1] (setting [6]) was more than 10 µM; in assay [2] it was 3.64 µM; in assay [3] (setting [7]), more than 10 µM; in assay [4], more than 10 µM; in assay [5], 0.021 µM.
For `Cc1ncc(-c2ccc3cnc(NC(=O)N(C)C4CCN(C)CC4)cc3c2)o1` [Compound 231, 1-Methyl-3-(6-(2-methyloxazol-5-yl)isoquinolin-3-yl)-1-(1-methylpiperidin-4-yl)urea], the EC50 is 3.89 µM in assay [1] (setting [6]); 2.83 µM in assay [2]; more than 10 µM in assay [3] (setting [7]); 8.28 µM in assay [4]; 0.016 µM in assay [5]. The inhibition at 10 µM in assay [3] (setting [9]) is 41.6%.

Values taken from patent US10604514B2, “6-(5-membered heteroaryl)isoquinolin-3-yl carboxamides and preparation and use thereof” (Samumed, LLC, priority 2017, dated 2020).
